Laboratory results as given in patent publication US5167824A, “Separation by carrier mediated transport” (priority 1990, dated 1992).
Where two headings read alike, the source gives them in different places.

Columns and labels:
26-10 Fab = assay type: binding, murine
Method: (§1) After the plates were washed and blocked with 1% horse serum in PBSA, solutions ([…]) containing 26-10 Fab or the BABS in either PBSA or 0.01 M sodium acetate at pH 5.5 were added to the wells and incubated 2-3 hrs at room temperature.

BABS = assay: Radioimmunoassay, inhibition of 125I-digoxin binding to BABS by cardiac glycosides; parameters: species or system murine
Method: as §1

[1] = test system: biosynthetic protein (FB-sFv 26-10); assay: Inhibition of 125I-dig-lysine binding by unlabelled cardiac glycosides; parameters: species or system murine; details: unlabelled glycoside; compared with parent 26-10 Fab
Source text: Properties of the binding site were probed by a modification of an assay developed by Mudgett-Hunter et al. (J. Immunol. (1982) 129:1165-1172; Molec. Immunol. (1985) 22:477-488), so that it could be run on microtiter plates as a solid phase sandwich assay. Binding data were collected using goat anti-murine Fab antisera (gAmFab) as the primary antibody that initially coats the wells of the plate. These are polyclonal antisera which recognize epitopes that appear to reside mostly on framework regions.
These are polyclonal antisera which recognize epitopes that appear to reside mostly on framework regions.

[2] = 1-octanol and water; cited from earlier work
FB-sFv 26-10 = assay: Oleandrin facilitated transport through supported liquid membrane containing FB-sFv 26-10; parameters: species or system murine
Source text: (§2) A hollow fiber device was constructed using 100×17.8 cm PAN fibers, produced by Sepracor, Inc., Marlborough, Mass. Each PAN fiber is a tubular membrane having a wall thickness of 50 μm and an internal diameter of 205 μm. Thus, this device contains a geometric surface area of 115 cm^2 of PAN fiber. The associated fluid handling equipment comprised two peristaltic pumps, one for the shell loop and one for the luman loop, a pressure gauge on the shell loop for determining the pressure drop from the shell side to the lumen side, and a throttling valve for creating a positive pressure on the shell side.
The fluid loops were then drained. 100 mls of buffer containing 10.0 mgs of FB-sFv 26-10 produced as disclosed above were then slowly ultrafiltered from the shell loop at a pressure of 10 psi. […] After this time, no bulk fluid, either aqueous or organic, was present in either loop. […] Since an optical density of 1.0 at 280 nm indicates a protein concentration of 1.0 mg/ml, the filtrate contained 4.0 mgs protein. 6.0 mgs of FB-sFv 26-10 were therefore assumed to be contained in the supported liquid membrane.
Octanol saturated with buffer, but not containing oleandrin, was then convected through each loop, with the 10 psi pressure differential across the supported liquid membrane. Once uninterrupted convection through each loop was established, the shell loop reservoir was replaced with a reservoir containing 500 mls of octanol saturated with buffer, and containing 2.0 mg/ml oleandrin. The lumen reservoir was replaced with a reservoir containing 50 mls of buffer saturated octanol, containing no oleandrin. Over a 24 hour period, no convective flow of octanol through the supported liquid membrane occurred.
During this period, successive 1 ml samples of the lumen reservoir were taken. In order not to disturb the volume of the lumen reservoir, the octanol taken in each sample was replaced with 1 ml of buffer saturated octanol after drawing each sample. The quantity of oleandrin contained in each lumen reservoir sample was determined by HPLC.

[3] = Oleandrin transport through supported liquid membrane without binding protein; details: absence of binding protein
Source text: as §2
The device was first washed with 1 L of water. This washing involved convecting water through the lumen, through the shell, and through the PAN fibers from shell-side to lumen.
Following the washing procedure, the liquid membrane was put in place. A buffer solution of the same composition as that in which the FB-sFv protein was dissolved (50 mM sodium chloride) was pumped through the fibers, from the shell-side to the lumen. Approximately 100 mls of buffer solution were convected through the fibers. […]
Oleandrin is a cardiac glycoside having a molecular weight of 576, and an organic to aqueous partition coefficient between 1-octanol and water of 338 (Cohnen et al, Drug Res. 28 (II), Heft 12, 1978). […] The quantity of oleandrin contained in each lumen reservoir sample was determined by HPLC.

[4] = Partition coefficient of oleandrin; assay type: physicochemical; details: 1-octanol and water; read-out: aqueous to organic coefficient S
[5] = organic solvents such as toluene; cited from earlier work
[6] = normalizing glycoside digoxigenin

Row | Compound | normalized concentration of inhibitor giving 50% inhibition of 125I-digoxin binding (26-10 Fab; [6]) | normalized concentration of inhibitor giving 50% inhibition of 125I-digoxin binding (26-10 Fab; normalizing glycoside digoxin) | normalized concentration of inhibitor giving 50% inhibition of 125I-digoxin binding (BABS; [6]) | normalized concentration of inhibitor giving 50% inhibition of 125I-digoxin binding (BABS; normalizing glycoside digoxin) | inhibition of binding of 125I-dig-lysine [1] | organic to aqueous partition coefficient [2] | initial flux of oleandrin (FB-sFv 26-10; BABS-containing membrane) | average flux of oleandrin (FB-sFv 26-10; BABS-containing membrane, 24-hour) | first order polynomial (slope) of change in oleandrin concentration (FB-sFv 26-10; presence of binding protein, time zero) | initial increase of oleandrin flux (FB-sFv 26-10; with vs without 26-10 protein) | first order polynomial (slope) of change in oleandrin concentration [3] | aqueous to organic partition coefficient [4] | solubility in organic solvents [5]
1 | C[C@]12CC[C@H](O)C[C@H]1CC[C@@H]1[C@@H]2CC[C@]2(C)[C@@H](C3=CC(=O)OC3)CC[C@]12O [Digitoxigenin, digitoxigenin] | 0.9 | 1.0 | 0.4 | 2.6 | can be inhibited | – | – | – | – | – | – | – | –
2 | C[C@H]1O[C@@H](O[C@H]2[C@@H](O)C[C@H](O[C@H]3[C@@H](O)C[C@H](O[C@H]4CC[C@@]5(C)[C@H](CC[C@@H]6[C@@H]5CC[C@]5(C)[C@@H](C7=CC(=O)OC7)CC[C@]65O)C4)O[C@@H]3C)O[C@@H]2C)C[C@H](O)[C@@H]1O [Digitoxin, digitoxin] | 0.8 | 0.9 | 0.3 | 2.0 | can be inhibited | – | – | – | – | – | – | – | –
3 | C[C@]12CC[C@H](O)C[C@H]1CC[C@@H]1[C@@H]2C[C@@H](O)[C@]2(C)[C@@H](C3=CC(=O)OC3)CC[C@]12O [Digoxigenin, digoxigenin] | 1.0 | 1.2 | 1.0 | 7.3 | can be inhibited | – | – | – | – | – | – | – | –
4 | CC(=O)OC1CCC2(C=O)C3CCC4(C)C(C5=CC(=O)OC5)CCC4(O)C3CCC2(O)C1 (centres unmarked) [Acetyl Strophanthidin, acetyl strophanthidin] | 1.1 | 1.3 | 0.8 | 5.9 | can be inhibited | – | – | – | – | – | – | – | –
5 | C[C@@H]1O[C@@H](O[C@H]2C[C@@H](O)[C@]3(CO)[C@H]4[C@H](O)C[C@]5(C)[C@@H](C6=CC(=O)OC6)CC[C@]5(O)[C@@H]4CC[C@]3(O)C2)[C@H](O)[C@H](O)[C@H]1O [Ouabain, ouabain] | 13 | 15 | 21 | 150 | can be inhibited | – | – | – | – | – | – | – | –
6 | CO[C@H]1C[C@H](O[C@H]2CC[C@@]3(C)[C@H](CC[C@@H]4[C@@H]3CC[C@]3(C)[C@@H](C5=CC(=O)OC5)[C@@H](OC(C)=O)C[C@]43O)C2)O[C@@H](C)[C@@H]1O [Oleandrin, oleandrin] | – | – | – | – | can be inhibited | 338 | 4.9×10^-12 gmole/sec-cm^2 | 2.9×10^-12 gmole/sec-cm^2 | 0.0215 mg/mL/h | 9.3 fold | 0.0023 mg/mL/h | ~0.003 | –
7 | C[C@H]1O[C@@H](O[C@H]2[C@@H](O)C[C@H](O[C@H]3[C@@H](O)C[C@H](O[C@H]4CC[C@@]5(C)[C@H](CC[C@@H]6[C@@H]5CC[C@]5(C)[C@@H](C7=CC(=O)OC7)[C@@H](O)C[C@]65O)C4)O[C@@H]3C)O[C@@H]2C)C[C@H](O)[C@@H]1O [Gitoxin, gitoxin] | 8.1 | 9.6 | 8.5 | 62 | can be inhibited | – | – | – | – | – | – | – | –
8 | C[C@H]1O[C@@H](O[C@H]2[C@@H](O)C[C@H](O[C@H]3[C@@H](O)C[C@H](O[C@H]4CC[C@@]5(C)[C@H](CC[C@@H]6[C@@H]5C[C@@H](O)[C@]5(C)[C@@H](C7=CC(=O)OC7)CC[C@]65O)C4)O[C@@H]3C)O[C@@H]2C)C[C@H](O)[C@@H]1O [Digoxin, digoxin] | 0.9 | 1.0 | 0.1 | 1.0 | can be inhibited | – | – | – | – | – | – | – | –
9 | CCOC(=O)C(C)c1ccc2cc(OC)ccc2c1 (racemic) [racemic ethyl ester of naproxen, ethyl ester of naproxen] | – | – | – | – | – | – | – | – | – | – | – | – | to the extent of moles per liter
